How the values were obtained:
Assay in all cases: CTG-3D luminescence at 96 h relative to day-0 seeding control (ratio to day 0); higher = more growth / less cytotoxicity; PDxO 3D drug screen (set 2), 96 h, CTG-3D normalised to day-0 seeding control.
HCI-023 = tested on: HCI-023 (organoid from a triple-negative breast cancer xenograft)
HCI-002 = tested on: HCI-002 (organoid from a triple-negative breast cancer xenograft)
HCI-015 = tested on: HCI-015 (organoid from a triple-negative breast cancer xenograft)
HCI-001 = tested on: HCI-001 (organoid from a triple-negative breast cancer xenograft)
HCI-027 = tested on: HCI-027 (organoid from a triple-negative breast cancer xenograft)

CC(=O)O[C@@]12CO[C@@H]1C[C@H](O)[C@@]1(C)C(=O)[C@H](O)C3=C(C)[C@@H](OC(=O)[C@H](O)[C@@H](NC(=O)OC(C)(C)C)c4ccccc4)C[C@@](O)([C@@H](OC(=O)c4ccccc4)[C@H]21)C3(C)C [docetaxel]
CTG-3D luminescence at 96 h
Details | 12.5 pM | 0.00025 µM | 0.005 µM | 0.1 µM | 1 µM | 10 µM | 100 µM | 625 fM
HCI-001, days in culture: 365 | 1.99 | 1.78 | 1.68 | 1.79 | 1.49 | 1.18 | 1.1 | 1.34
HCI-001, days in culture: 397 | 1.11 | 1.7 | 1.28 | 1.67 | 1.72 | 1.72 | 0.311 | 0.889
HCI-001, days in culture: 401 | 1 | 1.57 | 0.829 | 1.35 | 1.02 | 1.19 | 0.514 | 1.16
HCI-002, days in culture: 127 | 0.447 | 0.957 | 0.452 | 0.428 | 0.356 | 0.422 | 0.298 | 0.543
HCI-002, days in culture: 155 | 1.9 | 0.578 | 0.357 | 0.536 | 0.394 | 0.397 | 0.378 | 2.27
HCI-002, days in culture: 168 | 3.45 | 3.13 | 0.43 | 0.281 | 0.324 | 0.319 | 0.115 | 4.39
HCI-015, days in culture: 333 | 1.1 | 0.869 | 0.428 | 0.469 | 0.526 | 0.304 | 0.0462 | 0.76
HCI-015, days in culture: 355 | 1.2 | 0.928 | 0.736 | 0.737 | 0.975 | 0.684 | 0.105 | 0.757
HCI-015, days in culture: 369 | 1.06 | 0.83 | 0.967 | 0.721 | 0.553 | 0.702 | 0.176 | 1.69
HCI-023, days in culture: 223 | 0.666 | 0.731 | 0.679 | 0.597 | 0.578 | 0.746 | 0.0587 | 0.745
HCI-023, days in culture: 238 | 0.654 | 0.598 | 0.69 | 0.7 | 0.901 | 0.651 | 0.265 | 0.619
HCI-023, days in culture: 252 | 1.03 | 0.858 | 0.757 | 1.04 | 0.812 | 1.27 | 0.603 | 1.14
HCI-027, days in culture: 145 | 1.01 | 0.93 | 0.832 | 0.862 | 0.922 | 0.849 | 0.15 | 1.06
HCI-027, days in culture: 158 | 2.07 | 2.12 | 1.05 | 0.461 | 1.19 | 2.61 | 0.153 | 3.28
HCI-027, days in culture: 164 | 2.42 | 1.32 | 0.405 | 0.525 | 0.555 | 0.505 | 0.117 | 1.04
HCI-027, days in culture: 176 | 3.89 | 2.21 | 0.338 | 0.629 | 0.457 | 0.475 | 0.0832 | 2.73
HCI-027, days in culture: 186 | 1.45 | 1.25 | 0.855 | 0.693 | 0.469 | 0.451 | 0.0466 | 2.08

COc1cccc2c1C(=O)c1c(O)c3c(c(O)c1C2=O)C[C@@](O)(C(=O)CO)C[C@@H]3O[C@H]1C[C@H](N)[C@@H](O)[C@H](C)O1 [epirubicin]
CTG-3D luminescence at 96 h
Details | 12.5 pM | 0.00025 µM | 0.005 µM | 0.1 µM | 1 µM | 10 µM | 100 µM | 625 fM
HCI-001, days in culture: 365 | 2.72 | 2.24 | 2.31 | 1.83 | 0.374 | 0.226 | -0.00151 | 2.09
HCI-001, days in culture: 397 | 1.49 | 2.3 | 1.7 | 1.3 | 0.405 | 0.197 | -0.00311 | 1.83
HCI-001, days in culture: 401 | 1.41 | 1.96 | 1.6 | 1.06 | 0.216 | 0.3 | -0.00404 | 1.55
HCI-002, days in culture: 127 | 2.39 | 2.93 | 2.65 | 2.23 | 0.362 | 0.034 | -0.0164 | 3.16
HCI-002, days in culture: 155 | 5.42 | 5.17 | 4.75 | 2.9 | 0.251 | 0.0733 | -0.011 | 4.45
HCI-002, days in culture: 168 | 3.2 | 3.41 | 3.79 | 1.24 | 0.0925 | 0.0935 | -0.00758 | 3.54
HCI-015, days in culture: 333 | 2.58 | 1.36 | 1.49 | 0.405 | 0.191 | 0.0651 | 0.000859 | 1.94
HCI-015, days in culture: 355 | 2.99 | 2 | 0.533 | 0.761 | 0.192 | 0.0805 | 0.00144 | 1.85
HCI-015, days in culture: 369 | 2 | 1.58 | 2.14 | 0.514 | 0.143 | 0.117 | 0.000973 | 2.07
HCI-023, days in culture: 223 | 1.88 | 1.76 | 1.22 | 1.3 | 0.154 | 0.0393 | -0.00401 | 2.21
HCI-023, days in culture: 238 | 1.44 | 1.08 | 0.842 | 0.9 | 0.391 | 0.0393 | -0.00422 | 1.61
HCI-023, days in culture: 252 | 2.29 | 2.32 | 1.59 | 1.68 | 0.516 | 0.0524 | -0.00328 | 1.99
HCI-027, days in culture: 145 | 1.6 | 2.63 | 1.78 | 0.146 | 0.087 | 0.0692 | -0.00274 | 1.49
HCI-027, days in culture: 158 | 3.01 | 2.81 | 2.46 | 0.544 | 0.0846 | 0.202 | -0.00223 | 4.2
HCI-027, days in culture: 164 | 2.5 | 1.5 | 1.53 | 0.169 | 0.142 | 0.104 | -0.00102 | 3.34
HCI-027, days in culture: 176 | 3.02 | 2.26 | 1.43 | 0.676 | 0.0317 | 0.0395 | -0.000121 | 2.01
HCI-027, days in culture: 186 | 1.68 | 0.902 | 1.46 | 0.866 | 0.0439 | 0.0934 | -0.00168 | 2.13

O=C(c1cc(Cc2n[nH]c(=O)c3ccccc23)ccc1F)N1CCN(C(=O)C2CC2)CC1 [olaparib]
CTG-3D luminescence at 96 h
Details | 12.5 pM | 0.00025 µM | 0.005 µM | 0.1 µM | 1 µM | 10 µM | 100 µM | 625 fM
HCI-001, days in culture: 365 | 2.29 | 1.96 | 2.13 | 2.28 | 2.05 | 2.04 | 1.96 | 1.74
HCI-001, days in culture: 397 | 1.71 | 2.02 | 2 | 1.8 | 2.31 | 2.16 | 1.24 | 1.26
HCI-001, days in culture: 401 | 1.69 | 1.42 | 1.54 | 1.68 | 1.23 | 1.73 | 1.26 | 1.62
HCI-002, days in culture: 127 | 2.26 | 2.88 | 2.92 | 2.97 | 2.45 | 2.59 | 2.23 | 2.54
HCI-002, days in culture: 155 | 4.7 | 4.7 | 5.6 | 6.16 | 4.47 | 2.8 | 2.34 | 4.33
HCI-002, days in culture: 168 | 3.4 | 3.26 | 4.03 | 3.35 | 3.14 | 2.04 | 1.7 | 3.55
HCI-015, days in culture: 333 | 1.88 | 1.11 | 1.59 | 1.95 | 0.972 | 0.511 | 0.241 | 1.03
HCI-015, days in culture: 355 | 2.43 | 3.28 | 1.71 | 1.6 | 0.993 | 0.516 | 0.951 | 2.1
HCI-015, days in culture: 369 | 2.43 | 1.41 | 2.36 | 1.91 | 1.9 | 1.05 | 1.24 | 2.02
HCI-023, days in culture: 223 | 1.7 | 2.3 | 1.79 | 1.65 | 1.36 | 1.31 | 0.879 | 1.75
HCI-023, days in culture: 238 | 1.45 | 1.31 | 1.45 | 1.53 | 1.9 | 1.41 | 0.856 | 1.72
HCI-023, days in culture: 252 | 2.12 | 1.81 | 1.55 | 2 | 1.78 | 1.86 | 1.59 | 2.3
HCI-027, days in culture: 145 | 1.79 | 3.31 | 2.66 | 1.56 | 1.71 | 2.13 | 0.976 | 1.89
HCI-027, days in culture: 158 | 1.27 | 3.16 | 2.16 | 2.6 | 1.87 | 3.12 | 1.79 | 3.17
HCI-027, days in culture: 164 | 4.1 | 1.37 | 2.13 | 2.08 | 1.58 | 0.874 | 0.555 | 2.58
HCI-027, days in culture: 176 | 3.94 | 1.97 | 1.54 | 1.61 | 2.6 | 0.771 | 0.452 | 1.65
HCI-027, days in culture: 186 | 0.87 | 1.38 | 2.3 | 3.57 | 1.26 | 1.58 | 0.34 | 3.34

Source: the supplement of paper PMC8882468
